According to patent US20190292223A1, “SAP AND PEPTIDOMIMETICS FOR TREATMENT OF EYE DISEASE” (Arch Biosurgery, Inc., priority 2018, published 2019):
Blank lines part the entries; values can stand above or below the substance they belong to. Cy5.5 = Cy5.5 dye

What was measured:
[1] = tested on: activated retinal microglial cells; assay: Lipopolysaccharide ocular inflammation model, 1 μl LPS alone or with SAP intravitreally, sacrifice after 24 hours (Example 2); type: in vivo, Sprague-Dawley rats
Method: Adult white Sprague-Dawley rats with a weight of between 200 and 240 grams were housed in a 12 hours light/12 hours night cycle with free access to food and water. The animals were randomly divided into a study or control groups.
Intravitreal injections, immunohistochemical staining and assessment of intraocular inflammation were generally performed as described in Example 1.
1 μl sterile lipopolysaccharide (LPS; from S. typhimurium; catalog no. L-7261; Sigma-Aldrich, St. Louis, Mo.) either alone or in combination with (RADA)2 (SEQ ID NO: 88) solutions at 0.1%, 1.0%, and 10.0% were administered via direct intravitreal injections. The animals were sacrificed 24 hours after treatment. The experiments were repeated at least 5 times.
In some experiments, different SAP, including S2 (H2N(EARA)COOH; SEQ ID NO: 92), S3 (H2N(RARA)CONH2; SEQ ID NO: 413), and S5 (H2N(EARA)2CONH2; SEQ ID NO: 414), were evaluated as described above for (RADA)2 (SEQ ID NO: 88).
Finally, a conjugate of an EARA based SAP and a tissue-specific motif (MSCRAMM; SEQ ID NO: 141) was also evaluated using this lipopolysaccharide ocular inflammation model. Experiments were performed as described above for (RADA)2 (SEQ ID NO: 88). Briefly, 1 μl sterile lipopolysaccharide (LPS; from S. typhimurium; catalog no. L-7261; Sigma-Aldrich, St. Louis, Mo.) either alone or in combination with MSCRAMM(EARA)4 (SEQ ID NO: 432) solutions at 1.0%, and 3.0% were administered via direct intravitreal injections. The animals were sacrificed 24 hours after treatment. The experiments were repeated three times for each SAP conjugate concentration (that is, n=3 for 1%; n=3 for 3%).

[2] = tested on: activated retinal microglial cells; assay: Lipopolysaccharide ocular inflammation model, intravitreal co-injection, quantification of activated retinal microglial cells (Example 1); type: in vivo, Sprague-Dawley rats; parameters: TOTAL AREA WEIGHT (total retinal area weight-averaged density; amount of inflammation) / JEB #: unit not given here; conditions: for JEB # / TOTAL AREA WEIGHT (total retinal area weight-averaged density; amount of inflammation): 0.5% RADA + LPS intravitreal
Method: The anti-inflammatory effect of SAP was examined using the lipopolysaccharide ocular inflammation model, and measurement of microglial cell activation was assessed as an indicator of inflammation. Morphological changes in macrophage cells, such as microglial cells, can be used as a marker of the presence and extent of inflammation. Methods for identifying and scoring variations in microglial cell morphology in response to inflammatory stimuli are described in the art (see, for example, Jonas, et al., PLoS ONE 7(2): e30763 (2012)).
Adult white Sprague-Dawley rats weighing between 200 and 240 grams were housed in a 12 hour light/12 hour night cycle with free access to food and water. The animals were randomly divided into study or control groups.
Animals were anesthetized by an intraperitoneal injection of xylazine 2% (5 mg/kg body weight) and ketamine 10% (100 mg/kg body weight). Topical anesthesia was additionally provided by repeated administration of proparacaine (0.5%) drops onto the cornea. A thorough disinfection of the ocular surface, the lid margins and the periocular skin was carried out with iodine 5% solution.
Using a glass pipette pulled to the size of a 30 gauge needle and attached to a syringe, 2 μl of sterile, pyrogen-free saline containing lipopolysaccharides from Salmonella typhimurium (catalog no. L-7261; Sigma-Aldrich, St. Louis, Mo.) was intravitreally injected.
For the primary experiment, the study included 40 Sprague-Dawley rats. All intravitreal injection volumes were of 2 μl, to reduce the effects of increased ocular pressure. All intravitreal injections of lipopolysaccharides (LPS) volumes were 4 μg at a concentration of 2 μg/μL.
The control groups (n=20) received either an intravitreal saline injection (n=5), lipopolysaccharide (LPS) alone ([…]), or no injection as a normal control group (n=5). Animals in the SAP study group (n=15) also received the self-assembling peptide (amino acid sequence RADARADARADARADA; “RADA-16”) in concentrations of 0.5% of SAP/2 μL.
At one, three and seven days after the injections, the animals were sacrificed, and the globes were immunohistochemically stained and histomorphometrically examined. The contralateral eye from the LPS group was also examined.
The eyes were embedded with Optimal Cutting Temperature compound (Tissue-Tek® O.C.T., Ted Pella, Inc. Redding, Calif.) after the lenses were removed. The globes were sectioned and placed on subbed slides. After being washed in 0.01M phosphate buffered saline for 10 minutes, the sections (15 μm) were immersed in a blocking solution containing 0.3% triton, 2.5% bovine serum albumin (BSA; Proliant Co, Ankeny, Iowa, USA) and 2% goat serum for 30 minutes. The sections were incubated in a primary antibody diluted solution overnight at 4° C., containing rabbit anti-IBA1 (Ionized calcium Binding Adaptor molecule 1; 1:500; Wako Pure Chemical Industries, Ltd. Osaka, Japan) and mouse anti rat CD 68 (ED1) (1:1000; AbD Serotech, D-40470 Dusseldorf, Germany). The sections were then washed in 0.01M phosphate buffered saline (10 minutes, 3 times), and incubated with secondary antibody diluted solution at room temperature for 2 hours (Goat-anti-rabbit 568, Goat-anti-mouse Alexa 488, (Invitrogen, Carlsbad, Calif., 1:400)). The slides were then washed in 0.01M phosphate buffered saline (10 minutes, 3 times) and cover slipped with fluorescein mounting medium with DAPI (4′,6-diamidin-2′-phenylindol-dihydrochloride; Dako Ltd, Glostrup, Denmark). All images were taken under a 20× objective with a Carl Zeiss Flour microscope (Carl Zeiss Inc. Oberkochen, Germany) fitted with a spot camera. All illumination levels were fixed during image acquisition.
The amount of intraocular inflammation was assessed by quantification of immunohistochemically labeled activated retinal microglial cells, which function as the immune mediators of the central nervous system. […]

[3] = parameters: species or system Sprague-Dawley rats; conditions: rat, in vivo
Method: The fate of SAP upon application to the eye was investigated. Specifically, the ability of SAP to reach the retina via application of eye drop solutions of the SAP to the cornea was evaluated using an SAP-Cy5 conjugate.
Adult white Sprague-Dawley rats weighing between 200 and 240 grams were housed in a 12 hour light/12 hour night cycle with free access to food and water. The animals were randomly divided into experimental or control groups.
Conjugates of Cy5.5 and RADA (SEQ ID NO: 57), Cy5.5 and RADARADA ((RADA)2; SEQ ID NO: 88), and Cy5.5 and H2N(RADA)4CONH2 (SEQ ID NO: 433) were prepared according to a modified protocol of Chen X., et al., Cancer Res., 64(21): 8009-8014 (2004).
In one experiment, RADA-4-Cy5.5 conjugate was prepared as follows: 0.5 mg of H2N(RADA)4CONH2 was dissolved in 50 μL of DMSO to a final concentration of […] in DMSO. The solution was mixed with 20 μL of diethyl isopropyl amine (DIPEA) to adjust the pH to 12. A solution of Cy5.5 dyes (1.0 mg in 20 μL of DMSO) was added at room temperature for conjugation and the mixture was periodically vortexed over 2 hours.
In some experiments, the RADA-4 solution was prepared with water as the solvent, for example: to a solution of RADA-4 (1.8 mg of H2N(RADA)4CONH2 (SEQ ID NO: 433) in 500 μL of Milli-Q water), 1 μL of Diisopropyl ethylene amine (DIPEA) was added to obtain pH 8 from 4. To prepare a working Cy5.5 stock, 165 μL of Milli-Q water was added to 165 μL Cy5.5 to make a 6.59×10^−7 M solution. The final conjugate was prepared by mixing equal volumes (165 μL) of the buffered (pH 8) (RADA)4 solution and Cy5.5 solution at room temperature for 2 hours.
Eye drops were applied to both eyes of rats. The experimental group of rats were administered 2 μL of Cy5.5-(RADA)4 conjugate via drops, while control rats were administered Cy5.5 only via drops. The experiments were repeated using Cy5.5 conjugated to RADA (Cy5.5(RADA)COOH; SEQ ID NO: 442) and Cy5.5 conjugated to (RADA)2 (Cy5.5(RADA)2COOH; SEQ ID NO: 444).
The rats were sacrificed 24 hours or 3 days post treatment. The eye balls of the rats were harvested and were then fixed in 4% paraformaldehyde (PFA) overnight. Excessive PFA was washed with 0.1M phosphate buffer (0.1MPB) 3 times (30 minutes each). The eyeballs were then dehydrated with 30% sucrose solution (30 g sucrose in 100 mL of 0.1 MPB) overnight, while replenishing the sucrose solution once for at least 6 hours. As necessary, the shape of the eyeballs was reformed with O.C.T. (Optimal Cutting Temperature compound; TISSUE-TEK® O.C.T.; CA) by injecting through the optic nerve. Each eye was embedded entirely in a mount with O.C.T. in liquid nitrogen to form frozen blocks. Blocks containing the eye samples were then sectioned at 20 microns and were placed on charged slides and allowed to dry. The slides were then rinsed to remove excess OCT and cover-slipped. The fate of the Cy5.5-RADA conjugate was investigated by tracing the color of the Cy5.5 in the eye. Visualization was performed with light microscopy and photographs were taken with a SPOT camera affixed to the Zeiss microscope.

[4] = 1.0% and 3.0% solutions with LPS, 24 hours

Substance: H2N(EARA)COOH (H-EARA-OH) [SAP S2]
signs of retinal inflammation compared to control ([1]; along with LPS, FIG. 5): marked reduction

Substance: H2N(EARA)2CONH2 (H-EARAEARA-NH2) [SAP S5]
signs of retinal inflammation compared to control ([1]; along with LPS, FIG. 5): marked reduction

Substance: MSCRAMM(EARA)4 (MSCRAMMEARAEARAEARAEARA) [conjugate of an EARA based SAP and a tissue-specific motif (MSCRAMM]
ED1 reactivity [1, 4]: no evidence of ED1 reactivity | activation of microglia (JEB score) [1, 4]: ≤ 4 | inflammation in treated animals [1, 4]: no inflammation | signs of retinal inflammation compared to control (LPS only) [1, 4]: reduction

Substance: RADARADARADARADA
JEB # ([2]; Day 1): 11.63 | TOTAL AREA WEIGHT (total retinal area weight-averaged density; amount of inflammation) ([2]; Day 1): 74.99 | TOTAL AREA WEIGHT (total retinal area weight-averaged density; amount of inflammation) ([2]; Day 1, listed as SAP): 75.0±26.6 | JEB # ([2]; Day 3): 8.502 | TOTAL AREA WEIGHT (total retinal area weight-averaged density; amount of inflammation) ([2]; Day 3): 55.91 | TOTAL AREA WEIGHT (total retinal area weight-averaged density; amount of inflammation) ([2]; Day 3, listed as SAP): 55.9±45.9 | JEB # ([2]; Day 7): 9.158 | TOTAL AREA WEIGHT (total retinal area weight-averaged density; amount of inflammation) ([2]; Day 7): 52.66 | TOTAL AREA WEIGHT (total retinal area weight-averaged density; amount of inflammation) ([2]; Day 7, listed as SAP): 52.7±47.7 | amount of inflammation compared to normal or saline injected controls ([2]; 0.5% SAP + LPS): no significant difference | level of inflammation compared to LPS-only control group ([2]; 0.5% SAP + LPS): significantly (P<0.001) lower | density of activated retinal microglial cells compared to LPS controls ([2]; SAP + LPS vs LPS-only): significantly lower | signs of retinal inflammation ([2]; intraocular SAP along with LPS): marked reduction

Substance: Cy5.5(RADA)COOH ({Cy5.5}-RADA-OH) [Cy5.5 conjugated to RADA]
localization [3]: localize to the retina

Substance: H2N(RARA)CONH2 (H-RARA-NH2) [SAP S3]
LPS induced inflammation ([1]; along with LPS, FIG. 5): reduced LPS induced inflammation to normal levels | signs of retinal inflammation compared to control ([1]; along with LPS, FIG. 5): marked reduction

Substance: Cy5.5(RADA)4CONH2
localization [3]: localize to the retina | pink coloration (Cy5.5) in the retina [3]: pink coloration was observed throughout the outer retina | transport across the cornea / localization [3]: localize within the retina

transport across the cornea / localization [3]: not transported across the cornea
Substance: Cy5.5 [reference compound]
pink coloration (Cy5.5) in the retina [3]: no pink coloration was observed in any part of the retina or optic nerve head

Substance: RADARADA [(RADA)2]
signs of retinal inflammation compared to control (LPS alone) ([1]; all concentrations (0.1%, 1.0%, 10.0%), 24 hours, FIG. 4): marked reduction | density of activated retinal microglial cells compared to controls (LPS alone) ([1]; combination injection with LPS, 24 hours): significantly lower

Substance: Cy5.5(RADA)2COOH ({Cy5.5}-RADARADA-OH) [Cy5.5 conjugated to RADARADA]
localization [3]: localize to the retina
